The values that follow come from PubChem BioAssay (NCI).

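In this assay, cells in 96-well plates receive the compound at five concentrations for 48 hours. Endpoints are linearly interpolated between the surrounding concentrations. TGI: concentration producing complete growth inhibition.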

Test systems include A498 renal; UO-31 renal; SF-295 CNS; MCF7 breast; UACC-257 melanoma; M14 melanoma; HCT-116 colon; HL-60(TB) leukemia; SK-MEL-5 melanoma; SF-539 CNS; UACC-62 melanoma; T-47D breast; DU-145 prostate; SNB-75 CNS; NCI-H460 lung; OVCAR-3 ovarian; A549 NSCLC; SNB-19 CNS; HOP-92 NSCLC.
What all share (assay): NCI tumour cell line growth inhibition, 48 h

With `CN(C)/C=N/NC(=O)/C(C#N)=C/N(C)C`, the TGI in the assay on A498 renal, in the assay on UO-31 renal, in the assay with SF-295 CNS, in the assay with MCF7 breast, with UACC-257 melanoma and in the assay on M14 melanoma was over 100 µM each time. The TGI in the assay with HCT-116 colon, with HL-60(TB) leukemia, in the assay on SK-MEL-5 melanoma, in the assay with SF-539 CNS, in the assay on UACC-62 melanoma and in the assay on T-47D breast was over 100 µM each time. In addition, the TGI in the assay on DU-145 prostate, in the assay with SNB-75 CNS, in the assay with NCI-H460 lung, in the assay with OVCAR-3 ovarian, in the assay with A549 NSCLC and in the assay on SNB-19 CNS was over 100 µM in each case.
Consider `CC[C@]12C=CCN3CC[C@@]4(c5cc(Br)c(OC)cc5N(C)[C@H]4[C@@](O)(C(=O)N[C@@H](Cc4ccc(O)cc4)C(=O)OC)[C@@H]1O)[C@@H]32`, for which the TGI is 40.8 µM in the assay on A498 renal; 98.6 µM with UO-31 renal; 38.7 µM in the assay on SF-295 CNS; over 100 µM in the assay with MCF7 breast; 33.9 µM in the assay on UACC-257 melanoma; 95.1 µM with M14 melanoma. For the same compound, the TGI is over 100 µM with HCT-116 colon; 57.8 µM in the assay with HL-60(TB) leukemia; 31.4 µM in the assay with SK-MEL-5 melanoma; 36.6 µM with SF-539 CNS; 33.9 µM in the assay with UACC-62 melanoma; over 100 µM in the assay on T-47D breast. Also, the TGI in the assay on DU-145 prostate is over 100 µM; with NCI-H460 lung, 40.5 µM; with OVCAR-3 ovarian, 89.7 µM; in the assay on A549 NSCLC, over 100 µM; in the assay with SNB-19 CNS, over 100 µM.
As to `CC(=O)O[C@H]1CCC2[C@@H]3CCC4Cc5nc6c(nc5C[C@]4(C)C3CC[C@@]21C)CC1CC[C@@H]2C(CC[C@@]3(C)C2CC[C@@H]3C(C)CCCC(C)C)[C@@]1(C)C6` (some centres not stated), the TGI with UO-31 renal, in the assay on SF-295 CNS, in the assay with HOP-92 NSCLC, in the assay with MCF7 breast, in the assay on UACC-257 melanoma and with M14 melanoma was over 100 µM throughout. The TGI in the assay on HCT-116 colon, in the assay with HL-60(TB) leukemia, in the assay on SK-MEL-5 melanoma, in the assay on SF-539 CNS, in the assay with UACC-62 melanoma and with T-47D breast was over 100 µM in each case. Besides, the TGI with DU-145 prostate, in the assay with SNB-75 CNS, with NCI-H460 lung, in the assay on OVCAR-3 ovarian, with A549 NSCLC and in the assay with SNB-19 CNS was over 100 µM in each case.
With `Cc1ccc(-c2nc(-c3cnccn3)n(C3OC(CO)C(O)C(O)C3O)n2)cc1` (configuration not stated), the TGI with UO-31 renal, with SF-295 CNS, in the assay with HOP-92 NSCLC, in the assay with MCF7 breast, in the assay with UACC-257 melanoma and in the assay with M14 melanoma was over 100 µM throughout. The TGI in the assay on HCT-116 colon, in the assay on HL-60(TB) leukemia, in the assay with SK-MEL-5 melanoma, in the assay on SF-539 CNS, in the assay on UACC-62 melanoma and with T-47D breast was over 100 µM in each case. Further, the TGI in the assay with DU-145 prostate, in the assay with SNB-75 CNS, with NCI-H460 lung, in the assay with OVCAR-3 ovarian, with A549 NSCLC and in the assay on SNB-19 CNS was over 100 µM each time.
As to `CCCCCCCCCCCCCCCCOCC(CCl)OP(=O)(O)OP(=O)(O)OCC1OC(n2ccc(N)nc2=O)C(O)C1O` (configuration not stated), the TGI in the assay on A498 renal, in the assay on UO-31 renal, in the assay on SF-295 CNS, in the assay on HOP-92 NSCLC, in the assay on MCF7 breast and in the assay with UACC-257 melanoma was over 100 µM each time. The TGI with M14 melanoma, in the assay on HCT-116 colon, with HL-60(TB) leukemia, in the assay on SK-MEL-5 melanoma, with SF-539 CNS and with UACC-62 melanoma was over 100 µM in each case. For the same compound, the TGI in the assay on T-47D breast is over 100 µM; with SNB-75 CNS, 22 µM; in the assay with NCI-H460 lung, over 100 µM; in the assay on OVCAR-3 ovarian, over 100 µM; with A549 NSCLC, over 100 µM; in the assay with SNB-19 CNS, over 100 µM.
In the case of `COC1O[C@H]2[C@H]3[C@@H]1[C@@H](OS(=O)(=O)c1ccc(C)cc1)C(=O)N3C[C@H]2O` (some centres not stated), the TGI in the assay with A498 renal, in the assay on UO-31 renal, in the assay with SF-295 CNS, in the assay on MCF7 breast, in the assay with UACC-257 melanoma and with M14 melanoma was over 100 µM throughout. Moreover, the TGI in the assay on HCT-116 colon, with SK-MEL-5 melanoma, with SF-539 CNS, in the assay on UACC-62 melanoma, in the assay with T-47D breast and in the assay on DU-145 prostate was over 100 µM each time. The TGI in the assay with NCI-H460 lung, in the assay with OVCAR-3 ovarian, in the assay with A549 NSCLC and in the assay with SNB-19 CNS was over 100 µM throughout.
In the case of `O=c1[nH]c(=O)n(C2CC(O)C(CO)O2)cc1OCC1CCCCC1` (configuration not stated), the TGI with UO-31 renal, with SF-295 CNS, in the assay on MCF7 breast, with UACC-257 melanoma, in the assay on M14 melanoma and with HCT-116 colon was over 100 µM throughout. Also, the TGI in the assay with HL-60(TB) leukemia, in the assay with SK-MEL-5 melanoma, in the assay with UACC-62 melanoma, in the assay with T-47D breast, in the assay with DU-145 prostate and in the assay with SNB-75 CNS was over 100 µM throughout. The TGI in the assay with NCI-H460 lung, in the assay with OVCAR-3 ovarian, in the assay on A549 NSCLC and with SNB-19 CNS was over 100 µM in each case.
Take `Cc1nc(C(N)=S)sc1C(=O)CC(=O)C(=O)Nc1nc2ccccc2[nH]1`: the TGI in the assay on A498 renal, with UO-31 renal, with SF-295 CNS, in the assay on HOP-92 NSCLC, in the assay on MCF7 breast and with UACC-257 melanoma was over 100 µM each time. Besides, the TGI in the assay with M14 melanoma, in the assay with HCT-116 colon, in the assay on HL-60(TB) leukemia, with SK-MEL-5 melanoma, in the assay with SF-539 CNS and in the assay on UACC-62 melanoma was over 100 µM throughout. The TGI in the assay with T-47D breast, in the assay on SNB-75 CNS, with NCI-H460 lung, in the assay on OVCAR-3 ovarian and in the assay with A549 NSCLC was over 100 µM in each case.
With `C#CCCCOc1ncccn1`, the TGI in the assay with A498 renal, in the assay on UO-31 renal, in the assay with SF-295 CNS, in the assay with HOP-92 NSCLC, in the assay with MCF7 breast and with UACC-257 melanoma was over 100 µM throughout. Further, the TGI in the assay with M14 melanoma, in the assay with HCT-116 colon, in the assay on HL-60(TB) leukemia, in the assay with SK-MEL-5 melanoma, in the assay on SF-539 CNS and with UACC-62 melanoma was over 100 µM in each case. Moreover, the TGI with T-47D breast, in the assay with DU-145 prostate, with OVCAR-3 ovarian, in the assay with A549 NSCLC and in the assay on SNB-19 CNS was over 100 µM throughout.
`CCOC(=O)C(NCc1cccc(C(F)(F)F)c1)(NC(=O)CC)C(F)(F)F` (configuration not stated): the TGI with UO-31 renal, in the assay on SF-295 CNS, in the assay on HOP-92 NSCLC, in the assay with MCF7 breast, with UACC-257 melanoma and in the assay on M14 melanoma was over 100 µM in each case. For the same compound, the TGI in the assay on HCT-116 colon, in the assay on HL-60(TB) leukemia, in the assay on SK-MEL-5 melanoma, in the assay with SF-539 CNS, with UACC-62 melanoma and with T-47D breast was over 100 µM throughout. The TGI with DU-145 prostate, in the assay on SNB-75 CNS, in the assay on OVCAR-3 ovarian, in the assay on A549 NSCLC and with SNB-19 CNS was over 100 µM in each case.
On to `COc1cc(N(Cc2ccc3nc(OC)c(OC)nc3c2)Cc2ccc3nc(OC)c(OC)nc3c2)cc(OC)c1OC`, for which the TGI in the assay on UO-31 renal, in the assay with SF-295 CNS, in the assay with MCF7 breast, with UACC-257 melanoma, in the assay on M14 melanoma and with HCT-116 colon was over 50 µM each time. The TGI in the assay on HL-60(TB) leukemia, in the assay on SK-MEL-5 melanoma, in the assay with SF-539 CNS, with UACC-62 melanoma, in the assay with T-47D breast and in the assay with DU-145 prostate was over 50 µM each time. The TGI with SNB-75 CNS was 15.6 µM; in the assay on OVCAR-3 ovarian, over 50 µM; with A549 NSCLC, over 50 µM; in the assay with SNB-19 CNS, 47.7 µM.
As to `COC1CC(NC(=O)C(F)(F)F)C(OC(C)=O)C(C)O1` (configuration not stated), the TGI with UO-31 renal, with SF-295 CNS, in the assay on HOP-92 NSCLC, in the assay with MCF7 breast, with UACC-257 melanoma and in the assay with M14 melanoma was over 100 µM each time. The TGI with HCT-116 colon, in the assay on HL-60(TB) leukemia, in the assay on SK-MEL-5 melanoma, in the assay with SF-539 CNS, in the assay with UACC-62 melanoma and with T-47D breast was over 100 µM in each case. In addition, the TGI in the assay on DU-145 prostate, in the assay with SNB-75 CNS, in the assay with NCI-H460 lung, with OVCAR-3 ovarian, in the assay on A549 NSCLC and in the assay with SNB-19 CNS was over 100 µM throughout.
On to `Cc1ccc(C)c2c1CC(Cc1ccccc1C(=O)O)C2=O` (configuration not stated), for which the TGI in the assay on UO-31 renal, in the assay with SF-295 CNS, in the assay with HOP-92 NSCLC, in the assay with MCF7 breast, in the assay with UACC-257 melanoma and in the assay on M14 melanoma was over 100 µM each time. Besides, the TGI in the assay on HCT-116 colon, with HL-60(TB) leukemia, with SK-MEL-5 melanoma, in the assay on SF-539 CNS, in the assay with UACC-62 melanoma and in the assay with T-47D breast was over 100 µM each time. Further, the TGI in the assay on DU-145 prostate, in the assay on SNB-75 CNS, in the assay on NCI-H460 lung, in the assay with OVCAR-3 ovarian, in the assay with A549 NSCLC and in the assay with SNB-19 CNS was over 100 µM in each case.
`CC(=O)O[C@H]1C(=O)[C@@]2(C)[C@H]([C@H](OC(=O)c3ccccc3)[C@]3(O)C[C@H](OC(=O)[C@H](O)[C@@H](NC(=O)C(C)(C)C)c4ccccc4)C(C)=C1C3(C)C)[C@]1(OC(C)=O)CO[C@@H]1C[C@@H]2O`: the TGI in the assay on SF-295 CNS is 1.61 µM; in the assay on HOP-92 NSCLC it was over 10 µM; in the assay with MCF7 breast, over 10 µM; with UACC-257 melanoma it was over 10 µM; in the assay with M14 melanoma it was over 4.71 µM; with HCT-116 colon, over 3.23 µM. In addition, the TGI in the assay with HL-60(TB) leukemia was 0.0791 µM; in the assay on SK-MEL-5 melanoma, over 10 µM; in the assay with SF-539 CNS, 0.413 µM; with UACC-62 melanoma, over 10 µM; with T-47D breast it was over 10 µM; in the assay on DU-145 prostate, 0.839 µM. In addition, the TGI is 2.19 µM in the assay with SNB-75 CNS, over 10 µM in the assay with NCI-H460 lung, over 10 µM in the assay on A549 NSCLC and over 10 µM in the assay with SNB-19 CNS.
For the compound `COc1cc(Nc2nc3ccc(C(F)(F)F)cc3nc2C(=O)O)cc(OC)c1OC`, the TGI with UO-31 renal is 33.8 µM; in the assay with SF-295 CNS, 81.9 µM; in the assay with MCF7 breast, over 100 µM; in the assay on UACC-257 melanoma, 43 µM; in the assay on M14 melanoma it was 93.3 µM; in the assay on HCT-116 colon it was 34.9 µM. The TGI was over 100 µM in the assay on HL-60(TB) leukemia; over 100 µM in the assay on SK-MEL-5 melanoma; 86.5 µM with SF-539 CNS; 38.2 µM with UACC-62 melanoma; 78.3 µM in the assay on T-47D breast; 80.6 µM with DU-145 prostate. Moreover, the TGI was over 100 µM with SNB-75 CNS; 48.4 µM in the assay with NCI-H460 lung; 93.5 µM with OVCAR-3 ovarian; over 100 µM with A549 NSCLC; over 100 µM in the assay with SNB-19 CNS.
